Experimental findings from patent US20240239771A1, “BACTERIAL EFFLUX PUMP INHIBITORS” (priority 2020, published 2024) are described below.

Assay [1] concerns Pseudomonas aeruginosa ATCC 27853. The experiment in a line: Intrinsic MIC assay (CLSI broth microdilution). The class given is cell-based. As to conditions: ATCC27853, read-out: Intrinsic MIC of Compound. How it is done:
MIC assays were conducted in accordance with Clinical and Laboratory Standards Institute (CLSI) guidelines for broth microdilution. A 96-well plate containing cation-adjusted Mueller-Hinton (CAMH broth with 2-fold serial dilution of compounds was inoculated with log-phase bacterial at 5×10^5 CFU/mL. The final volume in each well was 100 μL. Each compound was tested in duplicate. The microtiter plates were incubated in an aerobic environment for 18 hours at 37° C. Then the bacterial growth was tested by reading the plate with a VersaMax plate reader (Molecular Devices, Inc.) at 600 nm. The MIC was defined as the lowest compound concentration that inhibited 90% of bacteria growth.
The intrinsic MIC of the experimental EPIs was tested with the method described. The 2-fold serial dilution begins with 100 μg/mL of tested compound in the first column of the 96-well plates. The following Gram-negative bacterial strain was included in these assays: Pseudomonas aeruginosa ATCC 27853.

For assay [2] the test system is unchanged. The experiment in a line: Standard EPI assay: MIC of test antibiotic in absence and presence of EPI. The following applies: for Enhanced Antibiotic's Activity (fold increase), Ceftazidime: ceftazidime with compound at 6.25 μg/mL, relative to MIC without EPI (2 μg/mL); for Enhanced Antibiotic's Activity (fold increase), Doxycycline: doxycycline with compound at 6.25 μg/mL, relative to MIC without EPI (32 μg/mL); for Enhanced Antibiotic's Activity (fold increase), Levofloxacin: levofloxacin with compound at 6.25 μg/mL, relative to MIC without EPI (1 μg/mL); for MIC of antibiotic in the absence of EPI: antibiotic alone, P. aeruginosa ATCC 27853. The class given is cell-based. The procedure:
The EPI assay for the purposes of these studies represents a MIC assay in which the MIC of the antibiotic against the bacteria is tested in the presence of an experimental efflux pump inhibitor (EPI). The highest concentration of the EPI present in the assay typically is ½ of the intrinsic MIC of the compound. If the intrinsic MIC of the EPI is greater than 100 μg/mL, the EPI assay was tested with 50 μg/mL. Using serial dilutions of the EPI, its enhancement of antibiotic activity was then evaluated. The relative EPI activity was decided by comparing the MIC of the antibiotic in the presence of the EPI compound with the intrinsic MIC of the antibiotic alone.
The impact of the EPIs on the MIC values of three test antibiotics (levofloxacin, ceftazidime and doxycycline) against P. aeruginosa ATCC 27853 were evaluated using our standard EPI assay. All three antibiotics levofloxacin, ceftazidime and doxycycline are known substrates of efflux pumps in P. aeruginosa, and are thus well-suited to be test antibiotics to assay for EPI activity.
In our standard EPI assay, the MIC of the test antibiotic is determined in the absence and presence of sub-inhibitory concentrations of the EPI. […] The MIC of levofloxacin against P. aeruginosa ATCC 27853 in the absence of EPI is 1 μg/mL. […] Similarly, the MIC of ceftazidime against P. aeruginosa ATCC 27853 in the absence of EPI is 2 μg/mL. In the presence of 6.25 μg/mL of the Example 4, the MIC of ceftazidime was reduced to 0.5 μg/mL, a 4-fold reduction. […] For all the examples in Table 1, the potentiation activities are determined at 6.25 μg/mL.

Where a name gives a salt, the structure may show the parent alone.

With `NCC[C@@H](O)[C@@H](N)CNC(=O)c1[nH]c2ccccc2c1-c1ccc(F)cc1` [Example 1, N-((2S,3R)-2,5-diamino-3-hydroxypentyl)-3-(4-fluorophenyl)-1H-indole-2-carboxamide hydrogen chloride salt], the minimal inhibitory concentration (MIC) in assay [1] was over 100 µg/mL. In assay [2], the “Enhanced Antibiotic's Activity (fold increase), Ceftazidime” value worked out at 1 fold; the “Enhanced Antibiotic's Activity (fold increase), Doxycycline” value was found to be 16 fold; the “Enhanced Antibiotic's Activity (fold increase), Levofloxacin” value was 8 fold.
Take `NCCC(O)[C@@H](N)CNC(=O)c1[nH]c2ccccc2c1-c1ccccc1` (stereo partly drawn) [Example 2, N-((2S)-2,5-diamino-3-hydroxypentyl)-3-phenyl-1H-indole-2-carboxamide hydrogen chloride salt]: the MIC in assay [1] was over 100 µg/mL. Further, in assay [2], the “Enhanced Antibiotic's Activity (fold increase), Doxycycline” value is given as 16 fold and the “Enhanced Antibiotic's Activity (fold increase), Levofloxacin” value worked out at 8 fold.
On to `NCCC(O)[C@@H](N)CNC(=O)c1[nH]c2ccccc2c1C1CCCC1` (stereo partly drawn) [Example 4, 3-cyclopentyl-N-((2S)-2,5-diamino-3-hydroxypentyl)-1H-indole-2-carboxamide hydrogen chloride salt], for which the minimal inhibitory concentration (MIC) in assay [1] was over 100 µg/mL. Also, in assay [2], the “Enhanced Antibiotic's Activity (fold increase), Ceftazidime” value amounted to 4 fold; the “Enhanced Antibiotic's Activity (fold increase), Doxycycline” value is 32 fold; the “Enhanced Antibiotic's Activity (fold increase), Levofloxacin” value was 32 fold.
In the case of `NCCC(O)[C@@H](N)CNC(=O)c1[nH]c2ccc(F)cc2c1C1CCCCC1` (stereo partly drawn) [Example 5, 3-cyclohexyl-N-((2S)-2,5-diamino-3-hydroxypentyl)-5-fluoro-1H-indole-2-carboxamide hydrogen chloride salt], the MIC in assay [1] came out at 50 µg/mL. Further, in assay [2], the “Enhanced Antibiotic's Activity (fold increase), Ceftazidime” value worked out at 16 fold; the “Enhanced Antibiotic's Activity (fold increase), Doxycycline” value was determined as 32 fold; the “Enhanced Antibiotic's Activity (fold increase), Levofloxacin” value amounted to 32 fold.
`NCCC(O)[C@@H](N)CNC(=O)c1[nH]c2ccccc2c1C1CCC(F)(F)CC1` (stereo partly drawn) [Example 6, N-((2S)-2,5-diamino-3-hydroxypentyl)-3-(4,4-difluorocyclohexyl)-1H-indole-2-carboxamide hydrogen chloride salt]: in assay [1], the MIC is 100 µg/mL. For the same molecule, in assay [2], the “Enhanced Antibiotic's Activity (fold increase), Ceftazidime” value worked out at 4 fold; the “Enhanced Antibiotic's Activity (fold increase), Doxycycline” value was found to be 16 fold; the “Enhanced Antibiotic's Activity (fold increase), Levofloxacin” value is given as 64 fold.
With `NCCC(O)[C@@H](N)CNC(=O)c1[nH]c2ccccc2c1-c1ccccc1F` (stereo partly drawn) [Example 7, N-((2S)-2,5-diamino-3-hydroxypentyl)-3-(2-fluorophenyl)-1H-indole-2-carboxamide hydrogen chloride salt], the MIC in assay [1] was over 100 µg/mL. In assay [2], the “Enhanced Antibiotic's Activity (fold increase), Ceftazidime” value is 1 fold; the “Enhanced Antibiotic's Activity (fold increase), Doxycycline” value was determined as 4 fold; the “Enhanced Antibiotic's Activity (fold increase), Levofloxacin” value was determined as 2 fold.
In the case of `NCC(O)C[C@H](N)CNC(=O)c1[nH]c2ccc(F)cc2c1-c1ccccc1Cl` (stereo partly drawn) [Example 8, 3-(2-chlorophenyl)-N-((2S)-2,5-diamino-4-hydroxypentyl)-5-fluoro-1H-indole-2-carboxamide hydrogen chloride salt], in assay [1], the MIC was over 100 µg/mL. In assay [2], the “Enhanced Antibiotic's Activity (fold increase), Ceftazidime” value is 2 fold; the “Enhanced Antibiotic's Activity (fold increase), Doxycycline” value was 16 fold; the “Enhanced Antibiotic's Activity (fold increase), Levofloxacin” value came out at 16 fold.
For the molecule `N#Cc1ccc(-c2c(C(=O)NC[C@@H](N)CC(O)CN)[nH]c3ccc(F)cc23)cc1` (stereo partly drawn) [Example 9, 3-(4-cyanophenyl)-N-((2S)-2,5-diamino-4-hydroxypentyl)-5-fluoro-1H-indole-2-carboxamide hydrogen chloride salt], in assay [1], the minimal inhibitory concentration (MIC) is over 100 µg/mL. For the same molecule, in assay [2], the “Enhanced Antibiotic's Activity (fold increase), Ceftazidime” value is 2 fold; the “Enhanced Antibiotic's Activity (fold increase), Doxycycline” value is 32 fold; the “Enhanced Antibiotic's Activity (fold increase), Levofloxacin” value amounted to 32 fold.
Take `NCC(O)C[C@H](N)CNC(=O)c1[nH]c2ccccc2c1-c1ccc(F)cc1` (stereo partly drawn) [Example 10, 3-(4-fluorophenyl)-N-((2S)-2,5-diamino-4-hydroxypentyl)-1H-indole-2-carboxamide hydrogen chloride salt]: the minimum inhibitory concentration (MIC) in assay [1] was 100 µg/mL. In assay [2], the “Enhanced Antibiotic's Activity (fold increase), Ceftazidime” value was found to be 4 fold; the “Enhanced Antibiotic's Activity (fold increase), Doxycycline” value turned out to be 32 fold; the “Enhanced Antibiotic's Activity (fold increase), Levofloxacin” value was 16 fold.
For `N#Cc1ccc(-c2c(C(=O)NC[C@@H](N)CC(O)CN)[nH]c3ccccc23)cc1` (stereo partly drawn) [Example 11, 3-(4-cyanophenyl)-N-((2S)-2,5-diamino-4-hydroxypentyl)-1H-indole-2-carboxamide hydrogen chloride salt], the minimum inhibitory concentration (MIC) in assay [1] was over 100 µg/mL. Besides, in assay [2], the “Enhanced Antibiotic's Activity (fold increase), Ceftazidime” value was 1 fold; the “Enhanced Antibiotic's Activity (fold increase), Doxycycline” value stood at 16 fold; the “Enhanced Antibiotic's Activity (fold increase), Levofloxacin” value amounted to 16 fold.
Regarding `NCC(O)C[C@H](N)CNC(=O)c1[nH]c2ccccc2c1-c1ccccc1` (stereo partly drawn) [Example 12, N-((2S)-2,5-diamino-4-hydroxypentyl)-3-phenyl-1H-indole-2-carboxamide hydrogen chloride salt], the MIC in assay [1] is over 100 µg/mL. Besides, in assay [2], the “Enhanced Antibiotic's Activity (fold increase), Ceftazidime” value came out at 2 fold; the “Enhanced Antibiotic's Activity (fold increase), Doxycycline” value amounted to 32 fold; the “Enhanced Antibiotic's Activity (fold increase), Levofloxacin” value is given as 16 fold.
The matching figures for `NCC(O)C[C@H](N)CNC(=O)c1[nH]c2ccc(F)cc2c1-c1ccccc1` (stereo partly drawn) [Example 13, N-((2S)-2,5-diamino-4-hydroxypentyl)-5-fluoro-3-phenyl-1H-indole-2-carboxamide hydrogen chloride salt]: over 100 µg/mL, 2 fold, 32 fold and 32 fold.
On to `N#Cc1ccc(-c2c(C(=O)NC[C@@H](N)CC(O)CN)[nH]c3c(F)cccc23)cc1` (stereo partly drawn) [Example 14, 3-(4-cyanophenyl)-N-((2S)-2,5-diamino-4-hydroxypentyl)-7-fluoro-1H-indole-2-carboxamide hydrogen chloride salt], for which the MIC in assay [1] is over 100 µg/mL. Further, in assay [2], the “Enhanced Antibiotic's Activity (fold increase), Ceftazidime” value amounted to 1 fold; the “Enhanced Antibiotic's Activity (fold increase), Doxycycline” value was found to be 16 fold; the “Enhanced Antibiotic's Activity (fold increase), Levofloxacin” value was found to be 32 fold.
With `NCC(O)C[C@H](N)CNC(=O)c1[nH]c2ccccc2c1C1CCCCC1` (stereo partly drawn) [Example 15, 3-cyclohexyl-N-((2S)-2,5-diamino-4-hydroxypentyl)-1H-indole-2-carboxamide hydrogen chloride salt], in assay [1], the MIC was 50 µg/mL. Moreover, in assay [2], the “Enhanced Antibiotic's Activity (fold increase), Ceftazidime” value is 4 fold; the “Enhanced Antibiotic's Activity (fold increase), Doxycycline” value is given as 32 fold; the “Enhanced Antibiotic's Activity (fold increase), Levofloxacin” value is 32 fold.
Turning to `NCC(CO)C[C@@H](N)CNC(=O)c1[nH]c2ccccc2c1-c1ccc(F)cc1` (stereo partly drawn) [Example 16, N-((2R)-2,5-diamino-4-(hydroxymethyl)pentyl)-3-(4-fluorophenyl)-1H-indole-2-carboxamide hydrogen chloride salt], in assay [1], the minimal inhibitory concentration (MIC) was over 100 µg/mL. In assay [2], the “Enhanced Antibiotic's Activity (fold increase), Ceftazidime” value is given as 2 fold; the “Enhanced Antibiotic's Activity (fold increase), Doxycycline” value is listed as 32 fold; the “Enhanced Antibiotic's Activity (fold increase), Levofloxacin” value was 16 fold.
For `CC(C)(O/N=C(\C(=O)N[C@@H]1C(=O)N2C(C(=O)[O-])=C(C[n+]3ccccc3)CS[C@H]12)c1csc(N)n1)C(=O)O` [ceftazidime, Ceftazidime, reference compound], the “MIC of antibiotic in the absence of EPI” value in assay [2] came out at 2 µg/mL.
Same read-out and setting: the figure for `C[C@H]1c2cccc(O)c2C(=O)C2=C(O)[C@]3(O)C(=O)C(C(N)=O)=C(O)[C@@H](N(C)C)[C@@H]3[C@@H](O)[C@@H]21` [doxycycline, Doxycycline, reference compound] is 32 µg/mL; for `C[C@H]1COc2c(N3CCN(C)CC3)c(F)cc3c(=O)c(C(=O)O)cn1c23` [levofloxacin, Levofloxacin, reference compound] it is 1 µg/mL.

One may read the MIC as the lowest concentration that inhibits growth of the organism.
